Data taken from patent US11673947B2, “Target tissue-specific antigen-binding molecule” (Chugai Seiyaku Kabushiki Kaisha, priority 2012, dated 2023).

Tests used:
IL-6 [1] = molecular target: T1, IL-6 (Homo sapiens, UniProt P05231); format: binding; design: purchased Kamakura Techno-Science, Inc; details: estimated
Experimental: Using Biacore T200 (GE Healthcare), A11 was analyzed for its interaction with human IL-6 (Kamakura Techno-Science, Inc.) in antigen-antibody reaction. Sensor chip CM5 (GE Healthcare) was immobilized with an appropriate amount of protein A/G (Invitrogen) by amine coupling. Antibodies of interest were captured by the chip to allow interaction to IL-6 as an antigen. The two types of running buffers used were 10 mmol/1 ACES, 150 mmol/l NaCl, 0.05% (w/v) Tween20, 100 μmol/l kynurenine, pH 7.4, and 10 mmol/1 ACES, 150 mmol/l NaCl, 0.05% (w/v) Tween20, pH 7.4. The interaction with IL-6 as an antigen was assessed at 37° C. The buffer used to dilute IL-6 was the same running buffer as described above.
A diluted solution of human IL-6 and a running buffer as a blank were injected at a flow rate of 5 μl/min for three minutes to allow interaction of human IL-6 with A11 captured on the sensor chip. […] The dissociation constant KD (M) of A11 was calculated for human IL-6 based on the association rate constant ka (1/Ms) and dissociation rate constant kd (1/s), both of which are kinetic parameters calculated from the sensorgram obtained by the measurement. Each parameter was calculated using the Biacore T200 Evaluation Software (GE Healthcare).
Then, the effect of kynurenine concentration on antigen-antibody reaction between A11 and human IL-6 was assessed using Biacore T200 (GE Healthcare). […]

IL-6 [2] = molecular target: T1, IL-6; experiment: Biacore T200, interaction between IL-6 and kynurenine; format: binding; design: purchased Kamakura Techno-Science, Inc; details: kynurenine at a maximal concentration of 800 nmol/l, about 5000 RU IL-6 immobilized, 25° C.
Experimental: The interaction between IL-6 (Kamakura Techno-Science, Inc.) and kynurenine was analyzed using Biacore T200 (GE Healthcare). Sensor chip CM5 (GE Healthcare) was immobilized with about 5000 RU of IL-6 by amine coupling, and 800, 400, 200, 100, 50, or 25 nmol/l kynurenine was allowed to interact with IL-6. The running buffer used was 10 mmol/l ACES, 150 mmol/l NaCl, 0.05% (w/v) Tween20, pH 7.4. All measurements for the interaction described above were carried out at 25° C. Kynurenine was diluted using the running buffer.
About 5000 RU of IL-6 was immobilized in the above-described experiment. The molecular weights of IL-6 and kynurenine were about 20000 g/mol and about 200 g/mol, respectively. Thus, at maximum about 50 RU of kynurenine was expected to interact.

hIL-6R = molecular target: T2, hIL-6R (Homo sapiens, UniProt P08887); experiment: IgG ELISA, binding to hIL-6R in mouse serum with or without kynurenine; details: mouse serum with or without kynurenine
T2 sequence (P08887 20-355 limits assumed): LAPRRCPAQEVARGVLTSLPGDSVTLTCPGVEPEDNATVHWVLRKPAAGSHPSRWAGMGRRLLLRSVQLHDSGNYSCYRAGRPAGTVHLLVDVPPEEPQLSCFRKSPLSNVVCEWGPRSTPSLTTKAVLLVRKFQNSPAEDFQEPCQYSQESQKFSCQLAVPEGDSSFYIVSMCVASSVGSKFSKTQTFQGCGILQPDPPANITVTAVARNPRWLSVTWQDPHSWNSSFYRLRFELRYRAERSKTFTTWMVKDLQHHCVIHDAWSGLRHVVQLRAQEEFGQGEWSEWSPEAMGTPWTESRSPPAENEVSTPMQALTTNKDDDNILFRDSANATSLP
Experimental: As described in Example 14, antibody 6RNMSC1-2_F02 which has antigen-binding activity in the presence of kynurenine, and the known anti-hIL-6R antibody MRA were subjected to ELISA under the two conditions described in Table 20. The antigen used was biotin-labeled hIL-6R.
First, a StreptaWell 96 microtiter plate (Roche) was coated at room temperature for one hour or more with 100 μl of PBS containing the biotin-labeled antigen. After washing with Wash buffer to remove unbound antigen from the plate, each well was blocked for one hour or more with 250 μl of Blocking Buffer. After Blocking Buffer was removed from each well, each of the purified IgGs was prepared to 2.5 μg/ml under condition 2 shown in Table 20, and aliquoted at 100 μl into the plate. The plate was allowed to stand at room temperature for one hour to allow binding of each IgG to the antigen in each well. After washing with Wash Buffer containing 100 μM kynurenine, an HRP-conjugated anti-human IgG antibody (BIOSOURCE) diluted with Sample Buffer containing kynurenine was added to each well. The plate was incubated for one hour. Following wash with Wash Buffer containing kynurenine, the TMB single solution (ZYMED) was added to each well. The chromogenic reaction in the solution of each well was terminated by adding sulfuric acid. Then, the developed color was assessed by measuring absorbance at 450 nm.

BaF/hIL-6R cells = experiment: Flow cytometry, binding to membrane-type hIL-6R on BaF/hIL-6R cells; format: cell-based; details: with and without 100 μM kynurenine
Experimental: 6RNMSC1-2_F02 antibody which has an antigen-binding activity in the presence of kynurenine as described in Example 14 was assessed for its binding to soluble hIL-6R. As a first step in assessing the ADCC activity of 6RNMSC1-2_F02 to hIL-6R-expressing cells, 6RNMSC1-2_F02 was evaluated as to whether it has the ability to bind to membrane-type hIL-6R expressed in hIL-6R-expressing cells. Specifically, the binding of 6RNMSC1-2_F02 to cells of the BaF/hIL-6R line (WO2012/073992) was assayed and analyzed using a flow cytometer. An appropriate number of BaF/hIL-6R cells were prepared and blocked with PBS containing 2% FBS on ice for one hour or more. Supernatant was removed from the blocked cells by centrifugation, and 100 μl of 6RNMSC1-2_F02 or the control antibody MRA (the heavy chain and light chain sequences are shown in SEQ ID NOs: 92 and 93, respectively) was added under two conditions: in the presence or absence of a final concentration of kynurenine at 100 μM. In this step, the antibodies were contacted with cell-membrane hIL-6R on ice for 30 minutes. […] Then, in the presence or absence of kynurenine, the complex was contacted with a secondary antibody (Beckman Coulter IM1627) that recognizes the antibody constant region. […] The binding of 6RNMSC1-2_F02 to the prepared cells was assayed and analyzed using the BD FACS cant II Flow Cytometer (BD).

T1 sequence (P05231 30-212): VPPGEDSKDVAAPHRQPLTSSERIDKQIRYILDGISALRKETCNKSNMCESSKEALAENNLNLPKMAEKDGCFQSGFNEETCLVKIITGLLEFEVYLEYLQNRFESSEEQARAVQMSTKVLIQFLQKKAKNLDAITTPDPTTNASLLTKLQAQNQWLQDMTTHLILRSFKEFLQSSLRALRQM

Molecule	KD of kynurenine for formation of the complex consisting of A11, IL-6, and kynurenine (IL-6 [1])	interaction with IL-6 (IL-6 [2])	absorbance, effect of kynurenine (hIL-6R)	fluorescence (binding to membrane-type hIL-6R) (BaF/hIL-6R cells)
Nc1ccccc1C(=O)C[C@H](N)C(=O)O [kynurenine]	several tens nM to several nM	not detectable		
MRA: known anti-human IL-6R antibody; SEQ ID NOs: 92 and 93 [reference compound]			the same regardless of the presence or absence of kynurenine	detectable regardless of the presence or absence of kynurenine
